Assays:
[1] = test system: HCT-116 MTAP(-/-) deficient cells; experiment: Inhibition of proliferation of HCT-116 MTAP(-/-) deficient cells (Cell-Titer Glo); format: cell-based; details: 8 days
Protocol: Test 1: Compound's inhibitory activity on proliferation of HCT-116 MTAP(-/-) deficient cells.
Materials and Cells: HCT-116 MTAP(-/-) deficient cells obtained from Kyinno Bio (China); RPMI-1640 medium, fetal bovine serum, and penicillin-streptomycin purchased from Thermo Fisher Scientific (America); 384-well plates from PerkinElmer (America); Cell-Titer Glo assay kit from Promega (America).
Cell Culture: HCT116 MTAP(-/-) deficient cells were cultured in RPMI 1640 medium containing 10% fetal bovine serum and 1% penicillin-streptomycin at 37°C, 5% CO2. Only cells in logarithmic growth phase were used for experiments.
(§1) Cell Proliferation Inhibition Assay: The compound's inhibitory activity on HCT-116 MTAP(-/-) deficient cells was assessed using the Cell-Titer Glo assay kit. Adjusting cell concentration, 40 µL was seeded into a 384-well plate and cultured overnight at 37°C, 5% CO2. Each well received 40 nL of the compound, achieving concentrations from 0 to 10,000 nM (starting concentration 10,000 nM, 3-fold dilution, 10 points), with 0.1% DMSO. The cell plate was incubated for 8 days at 37°C, 5% CO2. Cell-Titer Glo reagent (40 µL) was added to measure cell viability.

[2] = test system: HCT-116 MTAP wild-type cells; experiment: Inhibition of proliferation of HCT-116 MTAP wild-type cells (Cell-Titer Glo); format: cell-based; details: 8 days
Protocol: Test 2: Compound's inhibitory activity on proliferation of HCT-116 MTAP wild-type cells.
Materials and Cells: HCT-116 MTAP wild-type cells obtained from Kyinno Bio (China); RPMI-1640 medium, fetal bovine serum, and penicillin-streptomycin purchased from Thermo Fisher Scientific (America); 384-well plates from PerkinElmer (America); Cell-Titer Glo assay kit from Promega (America).
Cell Culture: HCT116 MTAP wild-type cells were cultured in RPMI 1640 medium containing 10% fetal bovine serum and 1% penicillin-streptomycin at 37°C, 5% CO2. Only cells in logarithmic growth phase were used for experiments.
as §1, with “MTAP wild-type” for “MTAP(-/-) deficient”

Row | Molecule | IC50 ([1]; Homo sapiens, HCT-116, 192 h) [nM] | IC50 ([2]; Homo sapiens, HCT-116, 192 h) [nM] | IC50 [1] [nM] | IC50 [2] [nM]
1 | CCOC(=O)c1ncn2c1c(N)nc1ccc(C(=O)N(C)C3COc4cc(C(F)(F)F)ccc43)cc12 (stereo not drawn) [Example 109, ethyl 4-amino-8-(methyl(6-(trifluoromethyl)-2,3-dihydrobenzofuran-3-yl)carbamoyl)imidazo[1,5-a]quinoxaline-3-carboxylate] | > 3000 | 9090 | – | –
2 | CN(C(=O)c1ccc2nc(N)c3c(C#N)ncn3c2c1)[C@@H]1COc2cc(C(F)(F)F)ccc21 [Example 131, (S)-4-amino-3-cyano-N-methyl-N-(6-(trifluoromethyl)-2,3-dihydrobenzofuran-3-yl)imidazo[1,5-a]quinoxaline-8-carboxamide] | > 3000 | > 10000 | – | –
3 | CN(C(=O)c1ccc2nc(N)c3cncn3c2n1)[C@@H]1COc2cc(C(F)(F)F)ccc21 [Example 30, (S)-6-amino-N-methy 1-N-(6-(trifluoromethy 1)-2,3-dihydrobenzofuran-3-yl)imidazo[1,5-a]pyrido[3,2-e]pyrazine-2-carboxamide] | 2090 | > 10000 | – | –
4 | CN(C(=O)c1cc2c(cc1F)nc(N)c1cncn12)[C@H]1COC(C)(C)c2cc(C(F)(F)F)ccc21 (single isomer, unassigned) [Example 134] | 623 | 5890 | – | –
5 | CN(C(=O)c1ccc2nc(N)c3cncn3c2c1)[C@H]1COCc2ccc(C(F)(F)F)cc21 (single isomer, unassigned) [Example 93] | > 3000 | > 10000 | – | –
6 | CN(C(=O)c1ccc2nc(N)c3cc(F)cn3c2c1)[C@@H]1COc2cc(Br)ccc21 [Example 11, (S)-4-amino-N-(6-bromo-2,3-dihydrobenzof uran-3-yl)-2-fluoro-N -methylpyrrolo[1,2-a] quinoxaline-8-carbox amide] | 1770 | 6410 | – | –
7 | (R)-4-amino-N-cyclo propyl-N-(6-(trifluoro methyl)-2,3-dihydrob enzofuran-3-yl)imidaz o[1,5-a]pyrido[3,4-e]p yrazine-8-carboxamid e [Example 87] | – | – | 9030 | 10800
8 | CN(C(=O)c1ccc2nc(N)c3cncn3c2c1)C1COc2ccccc21 (stereo not drawn) [Example 1, 4-amino-N-(2,3-dihydrobenzofuran-3-yl)-N-methylimidazo[1,5-a]quinoxaline-8-carboxamide] | 2310 | > 10000 | – | –
9 | Cc1cc(C(=O)N(C)[C@@H]2COc3cc(C(F)(F)F)ccc32)cc2c1nc(N)c1cncn12 [Example 37, (S)-4-amino-N,6-dime thyl-N-(6-(trifluoromethyl)-2,3-dihydrobenzofuran-3-yl)imidazo[1 ,5-a]quinoxaline-8-car boxamide] | > 3000 | > 10000 | – | –
10 | CN(C(=O)c1ccc2nc(N)c3nnnn3c2c1)[C@@H]1COc2cc(C(F)(F)F)ccc21 [Example 58, (S)-4-amino-N-methyl-N-(6-(trifluoromethyl)-2,3-dihydrobenzofuran-3-yl)tetrazolo[1,5-a]quinoxaline-8-carboxamide] | > 3000 | > 10000 | – | –
11 | (S)-4-amino-N-cyclop ropyl-N-(6-(trifluoro methyl)-2,3-dihydrob enzofuran-3-yl)imidaz o[1,5-a]pyrido[3,4-e]p yrazine-8-carboxamid e [Example 88] | – | – | 24.1 | 1850
12 | Nc1nc2ncc(C(=O)N(C3CC3)C3COc4cc(C(F)(F)F)ccc43)cc2n2cncc12 (stereo not drawn) [Example 126, 4-amino-N-cyclopropyl-N-(6-(trifluoromethyl)-2,3-dihydrobenzof uran-3-yl)imidazo[1,5-a]pyrido[2,3-e]pyrazine-8-carboxamide] | 592 | > 20000 | – | –
13 | CN(C(=O)c1ccc2nc(N)c3cnc(Br)n3c2c1)[C@@H]1COc2cc(C(F)(F)F)ccc21 [Example 111, (S)-4-amino-1-bromo-N-methyl-N-(6-(trifluoromethyl)-2,3-dihydrobenzofuran-3-yl)imidazo[1,5-a]quinoxaline-8-carboxamide] | 500 | > 10000 | – | –
14 | 4-amino-N-methyl-N-(8-(trifluoromethyl)-1, 3,4,5-tetrahydrobenzo [c]oxepin-5-yl)imidaz o[1,5-a]quinoxaline-8 -carboxamide [Example 44] | – | – | 310 | > 10000
15 | 4-amino-N-methyl-N-((1S,4S)-1-methyl-7-( trifluoromethyl)isochr oman-4-yl)imidazo[1, 5-a]quinoxaline-8-car boxamide [Example 105] | – | – | 66.1 | 2190
16 | CN(C(=O)c1ccc2nc(N)c3cncn3c2c1)[C@@H]1COc2cc(N)ccc21 [Example 54, (S)-4-amino-N-(6-amino-2,3-dihydrobenzof uran-3-yl)-N-methyli midazo[1,5-a]quinoxa line-8-carboxamide] | 2500 | > 10000 | – | –

Continued, in another order:

Row | IC50 ([1]; Homo sapiens, HCT-116, 192 h) [nM] | IC50 ([2]; Homo sapiens, HCT-116, 192 h) [nM] | Molecule | IC50 [1] [nM] | IC50 [2] [nM]
17 | 146 | > 10000 | CN(C(=O)c1cc2c(cc1F)nc(N)c1cncn12)[C@@H]1CCOc2cc(-c3cnn(C)c3)ccc21 [Example 114, (R)-4-amino-7-fluoro-N-methyl-N-(7-(1-methyl-1H-pyrazol-4-yl)chroman-4-yl)imidazo [1,5-a]quinoxaline-8-c arboxamide] | – | –
18 | 15.7 | 2510 | CN(C(=O)c1cc2c(cc1F)nc(N)c1cncn12)C1COC(C)(C)c2cc(C(F)(F)F)ccc21 (stereo not drawn) [Example 13, 4-amino-N-(1,1-dimethyl-7-(trifluoromethyl)isochroman-4-yl)-7-f luoro-N-methylimidaz o[1,5-a]quinoxaline-8-carboxamide] | – | –
19 | 23.4 | 2250 | CN(C(=O)c1ccc2nc(N)c3cncn3c2c1)[C@@H]1COc2cc(Br)ccc21 [Example 3, (S)-4-amino-N-(6-bromo-2,3-dihydrobenzof uran-3-yl)-N-methyli midazo[1,5-a]quinoxaline-8-carboxamide] | – | –
20 | 23.2 | 2230 | CC1OC[C@@H](N(C)C(=O)c2ccc3nc(N)c4cncn4c3c2)c2cc(C(F)(F)F)ccc21 (stereo partly drawn) [Example 19, 4-amino-N-methyl-N-((4S)-1-methyl-6-(trifluoromethyl)isochroman-4-yl)imidazo[1,5-a]quinoxaline-8-carbox amide] | – | –
21 | 66.8 | 7070 | CN(C(=O)c1cc2c(cc1F)nc(N)c1cncn12)[C@@H]1CCOc2cc(C(F)(F)F)ccc21 [Example 60, (R)-4-amino-7-fluoro-N-methyl-N-(7-(trifluoromethyl)chroman-4-yl)imidazo[1,5-a]qui noxaline-8-carboxamide] | – | –
22 | 297 | > 10000 | CN(C(=O)c1cc2c(cn1)nc(N)c1cncn12)[C@@H]1COc2cc(C(F)(F)F)ncc21 [Example 31, (S)-4-amino-N-methy 1-N-(6-(trifluoromethy 1)-2,3-dihydrofuro[3,2-c]pyridin-3-yl)imidaz o[1,5-a]pyrido[3,4-e]p yrazine-8-carboxamide] | – | –
23 | 10.6 | 993 | Cc1ncn2c1c(N)nc1ccc(C(=O)N(C)[C@@H]3COc4cc(C(F)(F)F)ccc43)cc12 [Example 6, (S)-4-amino-N,3-dime thyl-N-(6-(trifluoromethyl)-2,3-dihydrobenzofuran-3-yl)imidazo[1 ,5-a]quinoxaline-8-car boxamide] | – | –
24 | 9.3 | 1960 | CN(C(=O)c1cc2c(cc1F)nc(N)c1cncn12)[C@@H]1COC(C)(C)c2cc(C(F)(F)F)ccc21 (single isomer, unassigned) [Example 135] | – | –
25 | 141 | > 10000 | CN(C(=O)c1ccc2nc(N)c3cncn3c2c1)C1COc2nc(C(F)(F)F)ccc21 (stereo not drawn) [Example 7, 4-amino-N-methyl-N-(6-(trifluoromethyl)-2,3-dihydrofuro[2,3-b]pyridin-3-yl)imidazo[1,5-a]quinoxaline-8-car boxamide] | – | –
26 | 35.6 | 3640 | Nc1nc2cnc(C(=O)N(C3CC3)C3COc4cc(C(F)(F)F)ccc43)cc2n2cncc12 (stereo not drawn) [Example 67, 4-amino-N-cyclopropyl-N-(6-(trifluoromethyl)-2,3-dihydrobenzof uran-3-yl)imidazo[1,5-a]pyrido[3,4-e]pyrazine-8-carboxamide] | – | –
27 | 177 | > 10000 | CN(C(=O)c1ccc2nc(N)c3cncn3c2c1)[C@@H]1CCOc2cc(C(F)(F)F)ccc21 [Example 25, (R)-4-amino-N-methy 1-N-(7-(trifluoromethy 1)chroman-4-yl)imida zo[1,5-a]quinoxaline-8-carboxamide] | – | –
